Experiment [1] addresses T1, L858R/T790M/C797S EGFR (Homo sapiens, UniProt P00533, C797S/L858R/T790M).
T1 construct: expressed in transfected cells; host or cells: H1975 clone #25 (lentiviral over-expression, endogenous EGFR knocked out by sgRNA)
Briefly: EGFR degradation HTRF assay in H1975-clone #25 (LTC) cells. The class given is cell-based. The note with it: 16h treatment; for DC50: HTRF; for Dmax: NCI-H1975, H1975 # 25-LTC (L858R/T790M/C797S). Put shortly: (§1)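 DC50 from a four-parameter fit of HTRF signal. H1975 mutant-EGFR clones with endogenous EGFR knocked out; 16 h treatment, 10 uM top, 5-fold × 8.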
In general terms: In TR-FRET formats the signal depends on donor and acceptor labels being close together.

In experiment [2] the test system is Del19/T790M/C797S EGFR. Briefly: EGFR degradation HTRF assay in H1975-clone #28 (DTC) cells. Type of experiment: cell-based. The note with it: H1975 # 28 DTC (Del19/T790M/C797S), 16h treatment; for DC50: HTRF; for Dmax (%): maximum percentage of degradation. Put shortly: as §1
Setting [3] is: H1975 # 25-LTC (L858R/T790M/C797S).
[4] abbreviates: maximum percentage of degradation.

The term DC50 denotes the midpoint of the concentration-degradation curve. What is called Dmax is the greatest extent of degradation seen. Read a low Dmax as a partial loss of target.

`Cc1cc2cc(n1)-c1cnn(C)c1OCCC[C@@H](C)CN1/C(=N/C2=O)Nc2ccc(N3CCN(CC4CN(c5cc(F)c([C@H]6CCC(=O)NC6=O)c(F)c5)C4)CC3)cc21` [Example 321, (R)-3-(2,6-difluoro-4-(3-((4-((R,E)-1^1,2^6,7-trimethyl-3-oxo-5^2,5^3-dihydro-1^1H,5^1H-11-oxa-4-aza-5(2,1)-benzo[d]imidazola-2(2,4)-pyridina-1(4,5)-pyrazolacycloundecaphane-5^6-yl)piperazin-1-yl)methyl)azetidin-1-yl)phenyl)piperidine-2,6-dione] returned a DC50 in experiment [1] (setting [3]) of 1.17 nM. The compound also came in with a Dmax in experiment [1] (setting [4]) of 88.2%. In experiment [2], half-maximal degradation (DC50) was put at 1.18 nM and the “Dmax (%)” value is reported as 73.52%.
Taken in the same sequence, the figures for `Cc1cc2cc(n1)-c1cnn(C)c1OCCC[C@@H](C)CN1/C(=N/C2=O)Nc2ccc(CN3CCN(C(=O)[C@@H]4CCN(c5cc(F)c([C@H]6CCC(=O)NC6=O)c(F)c5)C4(C)C)C[C@@H]3C)cc21` [Example 190, (R)-3-(4-((R)-2,2-dimethyl-3-((S)-3-methyl-4-(((R,E)-1^1,2^6,7-trimethyl-3-oxo-5^2,5^3-dihydro-1^1H,5^1H -11-oxa-4-aza-5(2,1)-benzo[d]imidazola-2(2,4)-pyridina-(4,5)-pyrazolacycloundecaphane-5^6-yl)methyl)piperazine-1-carbonyl)pyrrolidin-1-yl)-2,6-difluorophenyl)piperidine-2,6-dione] were 1.17 nM, 82.2%, 0.742 nM and 64.16%.
Taken in the same sequence, the figures for `COc1cc2cc(n1)-c1cnn(C)c1OCCC[C@@H](C)CN1/C(=N/C2=O)Nc2ccc(N3CCN(C4CCN(c5cc(F)c([C@H]6CCC(=O)NC6=O)c(F)c5)CC4)CC3)cc21` [Example 453, (R)-3-(2,6-difluoro-4-(4-(4-((R,E)-2^6-methoxy-1^1,7-dimethyl-3-oxo-5^2,5^3-dihydro-1^1H,5^1H-11-oxa-4-aza-5(2,1)-benzo[d]imidazola-2(2,4)-pyridina-1(4,5)-pyrazolacycloundecaphane-5^6-yl)piperazin-1-yl)piperidin-1-yl)phenyl)piperidine-2,6-dione] were 3.17 nM, 85.3%, 1.43 nM and 82.83%.
Taken in the same sequence, the figures for `Cc1cc2cc(n1)-c1cnn(C)c1OCCC[C@@H](C)CN1/C(=N/C2=O)Nc2ccc(C(=O)N3CC(NCCc4cc(F)c([C@H]5CCC(=O)NC5=O)c(F)c4)C3)cc21` [Example 305, (R)-3-(2,6-difluoro-4-(2-((1-((R,E)-1^1,2^6,7-trimethyl-3-oxo-5^2,5^3-dihydro-1^1H,5^1H-11-oxa-4-aza-5(2,1)-benzo[d]imidazola-2(2,4)-pyridina-1(4,5)-pyrazolacycloundecaphane-5^6-carbonyl)azetidin-3-yl)amino)ethyl)phenyl)piperidine-2,6-dione] were 0.861 nM, 90.6%, 0.668 nM and 80.65%.
Take “(R)-3-(2,6-difluoro-4-(3-(7-(((R,E)-1^1,2^6,7-trimethyl-3-oxo-5^2,5^3-dihydro-1^1H,5^1H-11-oxa-4-aza-5(2,1)-benzo[d]imidazola-2(2,4)-pyridina-1(4,5)-pyrazolacycloundecaphane-5^6-yl)methyl)-2,7-diazaspiro[3.5]nonane-2-carbonyl)azetidin-1-yl)phenyl)piperidine-2,6-dione [Example 25]”: the DC50 in experiment [1] (setting [3]) is 0.4 nM; in experiment [2] it was 0.6 nM. Also, the “Dmax (%)” value in experiment [1] (H1975 # 25-LTC (L858R/T790M/C797S), maximum percentage of degradation) is 93.6%; in experiment [2], 86.3%.

These data come from US20240342292A1, “Compounds for the Degradation of EGFR Kinase” (BeiGene Switzerland GmbH, priority 2021, published 2024).
